In patent US11021518B2, “Theta defensin analogs” (The University of Southern California, priority 2019, dated 2021):
Bridge positions count the residues as written; N and C are the ends. Peptide text beside a SMILES is read from it.

Experiments:
[1] = system: carbapenem resistant strain of Klebsiella pneumoniae (KPC+-Kp BAA-1705 (ATCC)); assay: murine carbapenem resistant Klebsiella pneumoniae sepsis model, survival; assay type: in vivo, BALB/c mice; settings: for survival (FIG. 3 right panel): 0.5 mg/kg i.p. 1 hour post infection; for Kp sepsis % survival at 5 mg/kg: BALB/c mice, i.p. infection, peptide 5 mg/kg i.p. 1 hour post infection; for survival (FIG. 3 left panel): 5 mg/kg i.p. 1 hour post infection, sham controls 25% survival; for therapeutic effect on survival (FIG. 4): 1 hour post infection
Description: BALB/c mice were infected interperitoneally with 3-5×10^8 CFU of a carbapenem resistant strain of Klebsiella pneumoniae (KPC+-Kp BAA-1705 (ATCC)) and treated with peptide one hour post infection. […] P-values were determined by Fisher's exact test. The therapeutic peptides were provided intraperitoneally 1 hour after induction of sepsis.
BALB/c mice were infected i.p. with KPC+-Kp BAA-1705 (ATCC) and treated with a single dose of MTD12813, at the levels indicated, 1 hour post infection. The significance (P-values determined by Fisher's exact test) of the therapeutic effect for each dose is shown. […] It should be appreciated that 0.5 mg/kg is the lowest dose tested, and that Inventors believe that MTD12813 is effective at still lower doses, for example down to 0.25 mg/kg, […], or 10 μg/kg.

TACE = TACE (Homo sapiens, UniProt P78536); assay: inhibition of TACE; assay type: biochemical
TNF-α (TNF) release = assay: suppression of TNF-α (TNF) release; assay type: cell-based

TACE, sequence (P78536 215-824): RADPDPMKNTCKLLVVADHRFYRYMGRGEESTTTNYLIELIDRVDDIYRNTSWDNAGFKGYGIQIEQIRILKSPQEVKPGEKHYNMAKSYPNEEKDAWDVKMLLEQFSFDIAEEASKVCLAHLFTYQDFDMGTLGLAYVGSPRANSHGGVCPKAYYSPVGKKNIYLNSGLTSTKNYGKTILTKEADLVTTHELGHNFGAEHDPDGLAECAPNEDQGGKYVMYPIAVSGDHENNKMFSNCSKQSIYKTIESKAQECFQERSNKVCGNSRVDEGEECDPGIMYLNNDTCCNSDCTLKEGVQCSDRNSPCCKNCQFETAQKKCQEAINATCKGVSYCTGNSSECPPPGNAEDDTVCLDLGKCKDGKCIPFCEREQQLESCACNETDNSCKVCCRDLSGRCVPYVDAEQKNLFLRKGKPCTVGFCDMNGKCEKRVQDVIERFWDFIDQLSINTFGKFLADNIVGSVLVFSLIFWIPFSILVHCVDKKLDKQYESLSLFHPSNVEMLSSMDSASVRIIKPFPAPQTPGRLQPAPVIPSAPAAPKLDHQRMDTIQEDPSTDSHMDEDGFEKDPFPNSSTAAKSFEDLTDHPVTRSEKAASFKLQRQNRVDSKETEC

For `CC[C@H](C)[C@@H]1NC(=O)[C@@H]2CSSC[C@H](NC(=O)[C@H](CC(C)C)NC(=O)[C@@H]3CSSC[C@H](NC1=O)C(=O)N[C@@H](CCCNC(=N)N)C(=O)N[C@@H](CCCNC(=N)N)C(=O)N[C@@H](CCCNC(=N)N)C(=O)N[C@@H](Cc1ccccc1)C(=O)N3)C(=O)N[C@@H](CCCNC(=N)N)C(=O)N[C@@H](CCCNC(=N)N)C(=O)NCC(=O)N[C@@H](C(C)C)C(=O)N2` [MTD1280] (cyclo(CICRRRFCLCRRGV); disulfide 1-10, 3-8), which “survival (FIG. 3 right panel)” value [1] is on record?
Its value is “essentially identical to that of the sham control”.

And the “Kp sepsis % survival at 5 mg/kg” value [1]?
The value was 80-100%.

And the IC50 (TACE)?
The IC50 was 1280 nM.

And the “TNF % suppression at 5 mg/kg” value (TNF-α (TNF) release)?
Its value is 98.7%.

How did the “Kp sepsis % survival at 5 mg/kg” value [1] turn out when `CC[C@H](C)[C@@H]1NC(=O)[C@@H]2CSSC[C@H](NC(=O)[C@H]([C@@H](C)CC)NC(=O)[C@@H]3CSSC[C@H](NC1=O)C(=O)N[C@@H](CCCNC(=N)N)C(=O)N[C@@H](CCCNC(=N)N)C(=O)NCC(=O)N[C@@H](C(C)C)C(=O)N3)C(=O)N[C@@H](CCCNC(=N)N)C(=O)N[C@@H](CCCNC(=N)N)C(=O)NCC(=O)N[C@@H](C(C)C)C(=O)N2` [MTD1281] (cyclo(CICRRGVCICRRGV); disulfide 1-10, 3-8) was run?
The value was 40%.

And the IC50 (TACE)?
The IC50 was 347 nM.

And the “TNF % suppression at 5 mg/kg” value (TNF-α (TNF) release)?
The value was 83.0%.

Which results are given for `CC(C)C[C@@H]1NC(=O)[C@@H]2CSSC[C@H](NC(=O)[C@H](CC(C)C)NC(=O)[C@@H]3CSSC[C@H](NC1=O)C(=O)N[C@@H](CCCNC(=N)N)C(=O)N[C@@H](CCCNC(=N)N)C(=O)NCC(=O)N[C@@H](C(C)C)C(=O)N3)C(=O)N[C@@H](CCCNC(=N)N)C(=O)N[C@@H](CCCNC(=N)N)C(=O)NCC(=O)N[C@@H](C(C)C)C(=O)N2` [MTD1284] (cyclo(CLCRRGVCLCRRGV); disulfide 1-10, 3-8)?
Kp sepsis % survival at 5 mg/kg [1]: 53.3%; IC50 (TACE): 732 nM; TNF % suppression at 5 mg/kg (TNF-α (TNF) release): 78.8%

How did the IC50 (TACE) turn out when `CC[C@H](C)[C@@H]1NC(=O)[C@@H]2CSSC[C@H](NC(=O)[C@H](CC(C)C)NC(=O)[C@@H]3CSSC[C@H](NC1=O)C(=O)N[C@@H](CCCNC(=N)N)C(=O)N[C@@H](CCCNC(=N)N)C(=O)N[C@@H](CCCNC(=N)N)C(=O)N[C@@H](Cc1ccccc1)C(=O)N3)C(=O)N[C@@H](CCCNC(=N)N)C(=O)N[C@@H](CCCNC(=N)N)C(=O)NCC(=O)N[C@@H](C)C(=O)N2` [MTD1286] (cyclo(ACICRRRFCLCRRG); disulfide 2-11, 4-9) was run?
Its IC50 is 305 nM.

`CC(C)[C@@H]1NC(=O)CNC(=O)[C@H](CCCNC(=N)N)NC(=O)[C@H](CCCNC(=N)N)NC(=O)[C@@H]2CSSC[C@H](NC1=O)C(=O)N[C@@H](C)C(=O)N[C@H]1CSSC[C@H](NC(=O)[C@H](Cc3ccccc3)NC(=O)[C@H](CCCNC(=N)N)NC(=O)[C@H](CCCNC(=N)N)NC(=O)[C@H](CCCNC(=N)N)NC1=O)C(=O)N[C@@H](C)C(=O)N2` [MTD1289] (cyclo(ACRRGVCACRRRFC); disulfide 2-7, 9-14) was tested. Which IC50 (TACE) did it give?
Its IC50 is 1670 nM.

Which results are given for `CC(C)C[C@@H]1NC(=O)[C@@H]2CSSC[C@H](NC(=O)[C@H](CO)NC(=O)[C@@H]3CSSC[C@H](NC1=O)C(=O)N[C@@H](CCCNC(=N)N)C(=O)N[C@@H](CCCNC(=N)N)C(=O)NCC(=O)N[C@@H](C(C)C)C(=O)N3)C(=O)N[C@@H](CCCNC(=N)N)C(=O)N[C@@H](CCCNC(=N)N)C(=O)N[C@@H](CCCNC(=N)N)C(=O)N[C@@H](Cc1ccccc1)C(=O)N2` [MTD12810] (cyclo(CLCRRGVCSCRRRF); disulfide 1-10, 3-8)?
Kp sepsis % survival at 5 mg/kg [1]: 0%; IC50 (TACE): 1540 nM; TNF % suppression at 5 mg/kg (TNF-α (TNF) release): 2.0%

`CC[C@H](C)[C@@H]1NC(=O)[C@@H]2CSSC[C@H](NC(=O)[C@H](CO)NC(=O)[C@@H]3CSSC[C@H](NC1=O)C(=O)N[C@@H](CCCNC(=N)N)C(=O)N[C@@H](CCCNC(=N)N)C(=O)NCC(=O)N[C@@H](C(C)C)C(=O)N3)C(=O)N[C@@H](CCCNC(=N)N)C(=O)N[C@@H](CCCNC(=N)N)C(=O)N[C@@H](CCCNC(=N)N)C(=O)N[C@@H](Cc1ccccc1)C(=O)N2` [MTD12811] (cyclo(CICRRGVCSCRRRF); disulfide 1-10, 3-8) was tested. Which “Kp sepsis % survival at 5 mg/kg” value [1] did it give?
The value was 30%.

And the IC50 (TACE)?
Its IC50 is 1890 nM.

And the “TNF % suppression at 5 mg/kg” value (TNF-α (TNF) release)?
Its value is 37.5%.

Which results are given for `CC[C@H](C)[C@@H]1NC(=O)[C@@H]2CSSC[C@H](NC(=O)[C@H](CO)NC(=O)[C@@H]3CSSC[C@H](NC1=O)C(=O)N[C@@H](CCCNC(=N)N)C(=O)N[C@@H](CCCNC(=N)N)C(=O)N[C@@H](CCCNC(=N)N)C(=O)N[C@@H](Cc1ccccc1)C(=O)N3)C(=O)N[C@@H](CCCNC(=N)N)C(=O)N[C@@H](CCCNC(=N)N)C(=O)NCC(=O)N[C@@H](C(C)C)C(=O)N2` [MTD12812] (cyclo(CICRRRFCSCRRGV); disulfide 1-10, 3-8)?
Kp sepsis % survival at 5 mg/kg [1]: 20%; IC50 (TACE): 1100 nM; TNF % suppression at 5 mg/kg (TNF-α (TNF) release): 14.9%

`CC[C@H](C)[C@@H]1NC(=O)[C@@H]2CSSC[C@H](NC(=O)[C@H]([C@@H](C)CC)NC(=O)[C@@H]3CSSC[C@H](NC1=O)C(=O)NCC(=O)N[C@@H](CCCNC(=N)N)C(=O)NCC(=O)N[C@@H](C(C)C)C(=O)N3)C(=O)N[C@@H](CCCNC(=N)N)C(=O)N[C@@H](CCCNC(=N)N)C(=O)N[C@@H](CCCNC(=N)N)C(=O)N[C@@H](C(C)C)C(=O)N2` [MTD12813] (cyclo(CGRGVCICRRRVCI); disulfide 1-6, 8-13) was tested. Which “survival (FIG. 3 right panel)” value [1] did it give?
The value was about 90%.

And the “survival (FIG. 3 left panel)” value [1]?
Its value is “complete protection”.

And the “Kp sepsis % survival at 5 mg/kg” value [1]?
The value was 100%.

What about the “therapeutic effect on survival (FIG. 4)” value ([1]; single dose 0.5 mg/kg, lowest dose tested) of the same molecule?
The value was “highly effective”.

And the “therapeutic effect on survival (FIG. 4)” value ([1]; single dose 1.25 mg/kg)?
The value was “as effective as 5 mg/kg”.

What about the IC50 (TACE) of the same molecule?
The IC50 was 546 nM.

And the “TNF % suppression at 5 mg/kg” value (TNF-α (TNF) release)?
The value was 95.6%.

How did the IC50 (TACE) turn out when `CC(C)[C@@H]1NC(=O)CNC(=O)[C@H](CCCNC(=N)N)NC(=O)[C@H](CCCNC(=N)N)NC(=O)[C@@H]2CSSC[C@H](NC1=O)C(=O)N[C@@H](C)C(=O)N[C@H]1CSSC[C@H](NC(=O)[C@H](Cc3ccccc3)NC(=O)[C@H](CCCNC(=N)N)NC(=O)[C@H](CCCNC(=N)N)NC(=O)[C@H](C)NC1=O)C(=O)N[C@@H](C)C(=O)N2` [MTD12815] (cyclo(ACARRFCACRRGVC); disulfide 2-7, 9-14) was run?
Its IC50 is 1180 nM.

“RTD-1: naturally occurring rhesus monkey θ-defensin, cyclic octadecapeptide with 3 disulfide bonds (cyclo(GFCRCLCRRGVCRCICTR); disulfide (positions not given here); not fully specified (bridges); also: three disulfide bonds, pairing not given here; listed as Macaca mulatta) [reference compound]” was tested. Which “survival (FIG. 3 left panel)” value [1] did it give?
Its value is 70%.
